# Results from ChEMBL document CHEMBL1201861, “Genomics of Drug Sensitity in Cancer screening data, Wellcome Trust Sanger Institute”.
# Legend:
# Experiment in all cases: cells
# Assay type in all cases: functional, cell-based, Homo sapiens
# A253 cell line = conditions: Homo sapiens, A253;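 note: growth inhibition of A253 cells, read out with a cell viability assay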
# Description: SANGER: Inhibition of human A253 cell growth in a cell viability assay.
# SJSA-1 = conditions: Homo sapiens, SJSA-1;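 note: growth inhibition of human SJSA-1 cells, read out through a cell viability measurement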
# Description: SANGER: Inhibition of human SJSA-1 cell growth in a cell viability assay.
# CTB-1 = conditions: Homo sapiens, CTB-1
# Description: SANGER: Inhibition of human CTB-1 cell growth in a cell viability assay.
# ALL-PO = conditions: Homo sapiens, ALL-PO;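 note: growth inhibition of ALL-PO cells, read out by a cell viability assay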
# Description: SANGER: Inhibition of human ALL-PO cell growth in a cell viability assay.
# KY821 = conditions: Homo sapiens, KY821;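 note: growth inhibition of human KY821 cells, read out by a cell viability assay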
# Description: SANGER: Inhibition of human KY821 cell growth in a cell viability assay.
# NCI-H526 = conditions: Homo sapiens, NCI-H526;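 note: growth inhibition of the human NCI-H526 cell line, measured by a cell viability assay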
# Description: SANGER: Inhibition of human NCI-H526 cell growth in a cell viability assay.
# MFH-ino = conditions: Homo sapiens, MFH-ino;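 note: growth inhibition of human MFH-ino cells, read out by a cell viability assay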
# Description: SANGER: Inhibition of human MFH-ino cell growth in a cell viability assay.
# SF-126 = conditions: Homo sapiens, SF-126;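 note: growth inhibition of human SF126 cells, read out with a cell viability assay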
# Description: SANGER: Inhibition of human SF126 cell growth in a cell viability assay.
# NCI-H1304 = conditions: Homo sapiens, NCI-H1304;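 note: growth inhibition of the cancer cell line, measured in a cell viability assay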
# Description: SANGER: Inhibition of human NCI-H1304 cell growth in a cell viability assay.
# A388 = conditions: Homo sapiens, A388;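 note: growth inhibition of human A388 cells, read out with a cell viability assay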
# Description: SANGER: Inhibition of human A388 cell growth in a cell viability assay.
# NMC-G1 = conditions: Homo sapiens, NMC-G1;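 note: growth inhibition of the NMC-G1 cell line, measured with a cell viability read-out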
# Description: SANGER: Inhibition of human NMC-G1 cell growth in a cell viability assay.
# Becker = conditions: Homo sapiens, Becker;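 note: growth inhibition of Becker cells, read out with a cell viability assay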
# Description: SANGER: Inhibition of human Becker cell growth in a cell viability assay.
# NCI-H2126 = conditions: Homo sapiens, NCI-H2126;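 note: growth inhibition of the cancer cell line, determined with a cell viability readout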
# Description: SANGER: Inhibition of human NCI-H2126 cell growth in a cell viability assay.
# TE-6 = conditions: Homo sapiens, TE-6;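 note: growth inhibition of TE-6 cells, read out with a cell viability assay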
# Description: SANGER: Inhibition of human TE-6 cell growth in a cell viability assay.
# D-263MG = conditions: Homo sapiens, D-263MG
# Description: SANGER: Inhibition of human D-263MG cell growth in a cell viability assay.
# COLO-824 = conditions: Homo sapiens, COLO-824
# Description: SANGER: Inhibition of human COLO-824 cell growth in a cell viability assay.
# A704 = conditions: Homo sapiens, A704;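 note: growth inhibition of human A704 cells, read out with a cell viability assay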
# Description: SANGER: Inhibition of human A704 cell growth in a cell viability assay.
# TE-11 = conditions: Homo sapiens, TE-11;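 note: growth inhibition of human TE-11 cells, read out by a cell viability assay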
# Description: SANGER: Inhibition of human TE-11 cell growth in a cell viability assay.
# CAS-1 = conditions: Homo sapiens, CAS-1;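 note: growth inhibition of CAS-1 cells, measured with a cell viability assay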
# Description: SANGER: Inhibition of human CAS-1 cell growth in a cell viability assay.
# SCH = conditions: Homo sapiens, SCH;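 note: growth inhibition of human SCH cells, read out in a cell viability assay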
# Description: SANGER: Inhibition of human SCH cell growth in a cell viability assay.
# LB2518-MEL = conditions: Homo sapiens, LB2518-MEL;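 note: growth inhibition of human LB2518-MEL cells, measured with a cell viability assay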
# Description: SANGER: Inhibition of human LB2518-MEL cell growth in a cell viability assay.
# SNU-C2B = conditions: Homo sapiens, SNU-C2B;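 note: cell viability readout used to measure compound-driven suppression of SNU-C2B cell proliferation, IC50 marking half-maximal growth inhibition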
# Description: SANGER: Inhibition of human SNU-C2B cell growth in a cell viability assay.
# KM12 = conditions: Homo sapiens, KM12;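 note: KM12 cell growth inhibition, read out with a cell viability assay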
# Description: SANGER: Inhibition of human KM12 cell growth in a cell viability assay.
# C8166 = conditions: Homo sapiens, C8166;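 note: growth inhibition of human C8166 cells measured by a cell viability assay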
# Description: SANGER: Inhibition of human C8166 cell growth in a cell viability assay.
# SK-N-FI = conditions: Homo sapiens, SK-N-FI;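 note: cell viability assay measuring growth inhibition of human SK-N-FI cells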
# Description: SANGER: Inhibition of human SK-N-FI cell growth in a cell viability assay.
# VA-ES-BJ = conditions: Homo sapiens, VA-ES-BJ;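 note: growth inhibition of the VA-ES-BJ cell line, read out by a cell viability assay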
# Description: SANGER: Inhibition of human VA-ES-BJ cell growth in a cell viability assay.
# CTV-1 = conditions: Homo sapiens, CTV-1;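 note: growth inhibition of the cell line, read out with a cell viability assay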
# Description: SANGER: Inhibition of human CTV-1 cell growth in a cell viability assay.
# PSN1 = conditions: Homo sapiens, PSN1;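 note: suppression of growth of human PSN1 cells, read out by a cell viability assay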
# Description: SANGER: Inhibition of human PSN1 cell growth in a cell viability assay.
# HT-144 = conditions: Homo sapiens, HT-144
# Description: SANGER: Inhibition of human HT-144 cell growth in a cell viability assay.
# EW-16 = conditions: Homo sapiens, EW-16;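 note: growth inhibition of human EW-16 cells, read out as cell viability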
# Description: SANGER: Inhibition of human EW-16 cell growth in a cell viability assay.
# COLO-320-HSR = conditions: Homo sapiens, COLO-320-HSR;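 note: growth inhibition of COLO-320-HSR cells, determined with a cell viability assay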
# Description: SANGER: Inhibition of human COLO-320-HSR cell growth in a cell viability assay.
# LU-139 = conditions: Homo sapiens, LU-139
# Description: SANGER: Inhibition of human LU-139 cell growth in a cell viability assay.
# TGW = conditions: Homo sapiens, TGW;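 note: growth inhibition of human TGW cells, read out with a cell viability assay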
# Description: SANGER: Inhibition of human TGW cell growth in a cell viability assay.
# LAN-6 = conditions: Homo sapiens, LAN-6;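 note: growth inhibition of LAN-6 cells, determined with a cell viability assay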
# Description: SANGER: Inhibition of human LAN-6 cell growth in a cell viability assay.
# HCC1187 = conditions: Homo sapiens, HCC1187;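 note: growth inhibition of HCC1187 cells, read out with a cell viability assay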
# Description: SANGER: Inhibition of human HCC1187 cell growth in a cell viability assay.
# HEL = conditions: Homo sapiens, HEL;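 note: growth inhibition of HEL cells, read out with a cell viability assay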
# Description: SANGER: Inhibition of human HEL cell growth in a cell viability assay.
# LU-134-A = conditions: Homo sapiens, LU-134-A
# Description: SANGER: Inhibition of human LU-134-A cell growth in a cell viability assay.
# BT-474 = conditions: Homo sapiens, BT-474
# Description: SANGER: Inhibition of human BT-474 cell growth in a cell viability assay.
# JAR = conditions: Homo sapiens, JAR;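 note: growth inhibition of human JAR cells determined with a cell viability assay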
# Description: SANGER: Inhibition of human JAR cell growth in a cell viability assay.
# MS-1 = conditions: Homo sapiens, MS-1;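 note: growth inhibition of MS-1 cells, read out by cell viability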
# Description: SANGER: Inhibition of human MS-1 cell growth in a cell viability assay.
# RXF 393 = conditions: Homo sapiens, RXF 393;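 note: growth inhibition of human RXF 393 cells, read out with a cell viability assay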
# Description: SANGER: Inhibition of human RXF393 cell growth in a cell viability assay.
# SNU-5 = conditions: Homo sapiens, SNU-5;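 note: cell viability readout used to measure growth inhibition in human NCI-SNU-5 cells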
# Description: SANGER: Inhibition of human NCI-SNU-5 cell growth in a cell viability assay.
# HCC2218 = conditions: Homo sapiens, HCC2218;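 note: cell viability assay read-out, with IC50 given as the concentration that inhibits growth of the cell line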
# Description: SANGER: Inhibition of human HCC2218 cell growth in a cell viability assay.
# KGN = conditions: Homo sapiens, KGN;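 note: growth inhibition of KGN cells, read out with a cell viability assay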
# Description: SANGER: Inhibition of human KGN cell growth in a cell viability assay.
# EOL1 = conditions: Homo sapiens, EOL1;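 note: growth inhibition of EoL-1 cells, read out by a cell viability assay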
# Description: SANGER: Inhibition of human EoL-1-cell cell growth in a cell viability assay.
# ES6 = conditions: Homo sapiens, ES6;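 note: growth inhibition of human ES6 cells, read out with a cell viability assay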
# Description: SANGER: Inhibition of human ES6 cell growth in a cell viability assay.
# HCC2157 = conditions: Homo sapiens, HCC2157;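 note: growth inhibition of the cancer cell line, read out as cell viability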
# Description: SANGER: Inhibition of human HCC2157 cell growth in a cell viability assay.
# no-11 = conditions: Homo sapiens;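 note: growth inhibition of human NO-11 cells, read out with a cell viability assay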
# Description: SANGER: Inhibition of human no-11 cell growth in a cell viability assay.
# SNU1 = conditions: Homo sapiens, SNU1;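 note: growth inhibition of human NCI-SNU-1 cells, measured with a cell viability assay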
# Description: SANGER: Inhibition of human NCI-SNU-1 cell growth in a cell viability assay.
# Calu-6 = conditions: Homo sapiens, Calu-6;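 note: growth of human Calu-6 cells, read out by a cell viability assay, IC50 marking inhibition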
# Description: SANGER: Inhibition of human Calu-6 cell growth in a cell viability assay.
smiles,measurement,setting,value
Oc1ccc2ccccc2c1SSc1c(O)ccc2ccccc12,IC50,A253 cell line,> 32000 nM
same,IC50,SJSA-1,> 32000 nM
same,IC50,CTB-1,12700 nM
same,IC50,ALL-PO,13900 nM
same,IC50,KY821,> 32000 nM
same,IC50,NCI-H526,> 32000 nM
same,IC50,MFH-ino,> 32000 nM
same,IC50,SF-126,> 32000 nM
same,IC50,NCI-H1304,> 32000 nM
same,IC50,A388,> 32000 nM
same,IC50,NMC-G1,> 32000 nM
same,IC50,Becker,> 32000 nM
same,IC50,NCI-H2126,> 32000 nM
same,IC50,TE-6,> 32000 nM
same,IC50,D-263MG,> 32000 nM
same,IC50,COLO-824,> 32000 nM
same,IC50,A704,> 32000 nM
same,IC50,TE-11,> 32000 nM
same,IC50,CAS-1,> 32000 nM
same,IC50,SCH,> 32000 nM
same,IC50,LB2518-MEL,> 32000 nM
same,IC50,SNU-C2B,> 32000 nM
same,IC50,KM12,> 32000 nM
same,IC50,C8166,> 32000 nM
same,IC50,SK-N-FI,> 32000 nM
same,IC50,VA-ES-BJ,> 32000 nM
same,IC50,CTV-1,9360 nM
same,IC50,PSN1,> 32000 nM
same,IC50,HT-144,> 32000 nM
same,IC50,EW-16,24800 nM
same,IC50,COLO-320-HSR,> 32000 nM
same,IC50,LU-139,> 32000 nM
same,IC50,TGW,> 32000 nM
same,IC50,LAN-6,> 32000 nM
same,IC50,HCC1187,> 32000 nM
same,IC50,HEL,3730 nM
same,IC50,LU-134-A,> 32000 nM
same,IC50,BT-474,7410 nM
same,IC50,JAR,> 32000 nM
same,IC50,MS-1,> 32000 nM
same,IC50,RXF 393,> 32000 nM
same,IC50,SNU-5,> 32000 nM
same,IC50,HCC2218,> 32000 nM
same,IC50,KGN,12400 nM
same,IC50,EOL1,> 32000 nM
same,IC50,ES6,> 32000 nM
same,IC50,HCC2157,> 32000 nM
same,IC50,no-11,> 32000 nM
same,IC50,SNU1,> 32000 nM
same,IC50,Calu-6,> 32000 nM
CCC/C=C/C=C/C(=O)O[C@H]1/C(=C/C(=O)OC)C[C@H]2C[C@H]([C@@H](C)O)OC(=O)C[C@H](O)C[C@@H]3C[C@H](OC(C)=O)C(C)(C)[C@](O)(C[C@@H]4C/C(=C/C(=O)OC)C[C@H](/C=C/C(C)(C)[C@]1(O)O2)O4)O3 [BRYOSTATIN 1],IC50,A253 cell line,> 8 nM
same,IC50,SJSA-1,> 8 nM
same,IC50,CTB-1,> 8 nM
same,IC50,ALL-PO,> 8 nM
same,IC50,KY821,> 8 nM
same,IC50,NCI-H526,> 8 nM
same,IC50,MFH-ino,> 8 nM
same,IC50,SF-126,> 8 nM
same,IC50,NCI-H1304,> 8 nM
same,IC50,A388,> 8 nM
same,IC50,NMC-G1,> 8 nM
same,IC50,Becker,> 8 nM
same,IC50,NCI-H2126,> 8 nM
same,IC50,TE-6,> 8 nM
same,IC50,D-263MG,> 8 nM
same,IC50,COLO-824,> 8 nM
same,IC50,A704,> 8 nM
same,IC50,TE-11,> 8 nM
same,IC50,CAS-1,> 8 nM
same,IC50,SCH,> 8 nM
same,IC50,LB2518-MEL,> 8 nM
same,IC50,SNU-C2B,> 8 nM
same,IC50,KM12,> 8 nM
same,IC50,C8166,> 8 nM
same,IC50,SK-N-FI,> 8 nM
same,IC50,VA-ES-BJ,> 8 nM
same,IC50,CTV-1,> 8 nM
same,IC50,PSN1,> 8 nM
same,IC50,HT-144,> 8 nM
same,IC50,EW-16,> 8 nM
same,IC50,COLO-320-HSR,> 8 nM
same,IC50,LU-139,> 8 nM
same,IC50,TGW,> 8 nM
same,IC50,LAN-6,> 8 nM
same,IC50,HCC1187,> 8 nM
same,IC50,HEL,> 8 nM
same,IC50,LU-134-A,> 8 nM
same,IC50,BT-474,> 8 nM
same,IC50,JAR,> 8 nM
same,IC50,MS-1,> 8 nM
same,IC50,RXF 393,> 8 nM
same,IC50,SNU-5,> 8 nM
same,IC50,HCC2218,> 8 nM
same,IC50,KGN,> 8 nM
same,IC50,EOL1,> 8 nM
same,IC50,ES6,> 8 nM
same,IC50,HCC2157,> 8 nM
same,IC50,no-11,> 8 nM
same,IC50,SNU1,> 8 nM
same,IC50,Calu-6,> 8 nM
COc1cc2ncn(-c3cc(OCc4ccccc4C(F)(F)F)c(C(N)=O)s3)c2cc1OC [GW843682X],IC50,A253 cell line,53.2 nM
same,IC50,SJSA-1,32.7 nM
same,IC50,CTB-1,> 256 nM
same,IC50,ALL-PO,8.76 nM
same,IC50,KY821,15.9 nM
same,IC50,NCI-H526,88.3 nM
same,IC50,MFH-ino,35.5 nM
same,IC50,SF-126,138 nM
same,IC50,NCI-H1304,105 nM
same,IC50,A388,15.2 nM
same,IC50,NMC-G1,206 nM
same,IC50,Becker,59.7 nM
same,IC50,NCI-H2126,67.9 nM
same,IC50,TE-6,17.9 nM
same,IC50,D-263MG,> 256 nM
same,IC50,COLO-824,> 256 nM
same,IC50,A704,> 256 nM
same,IC50,TE-11,10.7 nM
same,IC50,CAS-1,> 256 nM
same,IC50,SCH,> 256 nM
same,IC50,LB2518-MEL,107 nM
same,IC50,SNU-C2B,7.53 nM
same,IC50,KM12,16.5 nM
same,IC50,C8166,> 256 nM
same,IC50,SK-N-FI,232 nM
same,IC50,VA-ES-BJ,22.7 nM
same,IC50,CTV-1,30.4 nM
same,IC50,PSN1,5.83 nM
same,IC50,HT-144,16.4 nM
same,IC50,EW-16,13.3 nM
same,IC50,COLO-320-HSR,28.1 nM
same,IC50,LU-139,65.6 nM
same,IC50,TGW,34.7 nM
same,IC50,LAN-6,139 nM
same,IC50,HCC1187,122 nM
same,IC50,HEL,27.5 nM
same,IC50,LU-134-A,119 nM
same,IC50,BT-474,> 256 nM
same,IC50,JAR,56.8 nM
same,IC50,MS-1,16 nM
same,IC50,RXF 393,105 nM
same,IC50,SNU-5,52 nM
same,IC50,HCC2218,> 256 nM
same,IC50,KGN,33.2 nM
same,IC50,EOL1,42.3 nM
same,IC50,ES6,6.19 nM
same,IC50,HCC2157,> 256 nM
same,IC50,no-11,178 nM
same,IC50,SNU1,> 256 nM
same,IC50,Calu-6,36.7 nM
